In brackets after ≈: the same amount, converted by molar mass. Activity calls are given as the source filed them. No cut-off for these calls is given here.
What was measured:
[1] = Cytotoxicity against rat H9c2 cells assessed as reduction in cell viability measured for 72 hrs; format: toxicity, cell-based
Trypanosoma cruzi [2] = assay: Antitrypanosomal activity against Trypanosoma cruzi Tulahuen trypomastigotes assessed as reduction in parasite growth incubated for 4 hrs by cell counter analysis; format: functional, organism-based
[3] = Microsomal stability in CD-1 mouse liver microsome measured assessed as intrinsic clearance upto 30 mins by HPLC-MS/MS analysis; format: ADME; conditions: microsomes, 0.5 h
[4] = Microsomal stability in CD-1 mouse liver microsome measured assessed as half life upto 30 mins by HPLC-MS/MS analysis; format: ADME; conditions: liver microsomes
[5] = Microsomal stability in human liver microsome measured assessed as intrinsic clearance upto 30 mins by HPLC-MS/MS analysis; format: ADME; conditions: microsomes, 0.5 h
[6] = Microsomal stability in human liver microsome measured assessed as half life upto 30 mins by HPLC-MS/MS analysis; format: ADME; conditions: liver microsomes
[7] = Cmax in BALB/c mouse at 50 mg/kg, po measured at 15 to 1440 mins by LC-MS/MS analysis; format: ADME, organism-based; set-up: time lower 15 min, dose 50 mg/kg, time upper 1440 min, route po; conditions: in vivo
[8] = Tmax in BALB/c mouse at 50 mg/kg, po measured at 15 to 1440 mins by LC-MS/MS analysis; format: ADME, organism-based; conditions: in vivo, time 15-1440 min
[9] = AUC (0 to t) in BALB/c mouse at 50 mg/kg, po measured at 15 to 1440 mins by LC-MS/MS analysis; format: ADME, organism-based; set-up: dose 50 mg/kg, time upper 1440 min, time lower 15 min, route po; conditions: in vivo
Trypanosoma cruzi [10] = assay: Antitrypanosomal activity against Trypanosoma cruzi Tulahuen strain trypomastigotes infected in rat H9c2 cells; format: functional, organism-based
Trypanosoma cruzi [11] = assay: Antitrypanosomal activity against Trypanosoma cruzi Tulahuen amastigotes infected in monkey LLC-MK2 cells assessed as reduction in amastigotes per 100 cells by cell counting analysis; format: functional, organism-based
[12] = Cytotoxicity against monkey LLC-MK2 cells assessed as reduction in cell viability; format: toxicity, cell-based; conditions: rhesus monkey (Macaca mulatta)
[13] = target: Sterol 14-alpha demethylase (Trypanosoma cruzi (strain CL Brener), UniProt Q7Z1V1); assay: Inhibition of Trypanosoma cruzi CYP51
Trypanosoma cruzi [14] = assay: Antitrypanosomal activity against Trypanosoma cruzi Tulahuen amastigotes infected in monkey LLC-MK2 cells assessed reduction in amastigotes per 100 cells by measuring rate of kill time by counting analysis; format: functional
[15] = Cytotoxicity against mouse NIH3T3 cells assessed as reduction in cell viability; format: toxicity, cell-based
HepG2 = assay: Cytotoxicity against human HepG2 cells assessed as reduction in cell viability; format: functional, cell-based
[16] = Equilibrium solubility of the compound in FaSSIF at pH 6.5; format: physicochemical
[17] = target: Voltage-gated inwardly rectifying potassium channel KCNH2 (Homo sapiens, UniProt Q12809); assay: Inhibition of hERG cardiac ion channel; format: toxicity
[18] = AUC in BALB/c mouse at 50 mg/kg, po measured at 15 to 1440 mins by LC-MS/MS analysis; format: ADME, organism-based; set-up: time upper 1440 min, dose 50 mg/kg, time lower 15 min, route po; conditions: in vivo
[19] = Toxicity in BALB/c mouse assessed as reduction in body weight loss at 50 mg/kg, po bid; format: organism-based; set-up: scale not given: the % may be the effect or the level left; conditions: in vivo
Trypanosoma cruzi [20] = assay: In vivo antitrypanosomal activity against Trypanosoma cruzi infected in BALB/c mouse model assessed as reduction in parasitemia at 30 mg/kg, po preincubated for 4 days post infection followed by compound treatment and measured after 5 to 10 days; format: functional; set-up: scale not given: the % may be the effect or the level left; conditions: time 5-10 day

Sequence of Voltage-gated inwardly rectifying potassium channel KCNH2 (Q12809 whole entry): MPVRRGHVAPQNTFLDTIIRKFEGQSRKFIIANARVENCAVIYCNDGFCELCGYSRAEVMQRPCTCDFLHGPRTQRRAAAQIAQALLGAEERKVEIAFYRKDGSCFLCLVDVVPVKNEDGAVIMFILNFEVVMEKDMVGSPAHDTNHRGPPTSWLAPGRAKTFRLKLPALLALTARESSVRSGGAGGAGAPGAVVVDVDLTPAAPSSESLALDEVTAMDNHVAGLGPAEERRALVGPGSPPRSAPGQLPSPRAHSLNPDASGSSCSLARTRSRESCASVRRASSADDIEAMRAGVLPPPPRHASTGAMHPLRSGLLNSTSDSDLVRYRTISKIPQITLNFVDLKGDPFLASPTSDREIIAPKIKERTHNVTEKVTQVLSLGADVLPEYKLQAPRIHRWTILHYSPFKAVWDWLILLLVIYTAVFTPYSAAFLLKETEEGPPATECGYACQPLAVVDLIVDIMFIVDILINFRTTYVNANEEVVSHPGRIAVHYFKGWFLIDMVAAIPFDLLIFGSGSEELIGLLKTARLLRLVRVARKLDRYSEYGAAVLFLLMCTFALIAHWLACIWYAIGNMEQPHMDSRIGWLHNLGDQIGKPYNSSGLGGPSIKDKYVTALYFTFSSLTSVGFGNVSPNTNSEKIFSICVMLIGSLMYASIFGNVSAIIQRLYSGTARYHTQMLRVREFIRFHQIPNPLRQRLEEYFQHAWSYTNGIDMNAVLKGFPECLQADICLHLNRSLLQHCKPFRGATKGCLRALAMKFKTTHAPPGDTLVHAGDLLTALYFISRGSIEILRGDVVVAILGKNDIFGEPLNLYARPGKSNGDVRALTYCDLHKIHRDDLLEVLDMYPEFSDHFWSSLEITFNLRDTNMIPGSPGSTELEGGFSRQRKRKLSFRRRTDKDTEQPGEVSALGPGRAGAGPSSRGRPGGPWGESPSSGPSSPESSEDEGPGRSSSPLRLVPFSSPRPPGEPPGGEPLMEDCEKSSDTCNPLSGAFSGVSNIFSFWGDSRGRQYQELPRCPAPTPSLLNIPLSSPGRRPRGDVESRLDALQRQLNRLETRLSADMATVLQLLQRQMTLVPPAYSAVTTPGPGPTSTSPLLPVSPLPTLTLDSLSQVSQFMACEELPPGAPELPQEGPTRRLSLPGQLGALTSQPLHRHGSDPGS
Sequence of Sterol 14-alpha demethylase (Q7Z1V1 whole entry): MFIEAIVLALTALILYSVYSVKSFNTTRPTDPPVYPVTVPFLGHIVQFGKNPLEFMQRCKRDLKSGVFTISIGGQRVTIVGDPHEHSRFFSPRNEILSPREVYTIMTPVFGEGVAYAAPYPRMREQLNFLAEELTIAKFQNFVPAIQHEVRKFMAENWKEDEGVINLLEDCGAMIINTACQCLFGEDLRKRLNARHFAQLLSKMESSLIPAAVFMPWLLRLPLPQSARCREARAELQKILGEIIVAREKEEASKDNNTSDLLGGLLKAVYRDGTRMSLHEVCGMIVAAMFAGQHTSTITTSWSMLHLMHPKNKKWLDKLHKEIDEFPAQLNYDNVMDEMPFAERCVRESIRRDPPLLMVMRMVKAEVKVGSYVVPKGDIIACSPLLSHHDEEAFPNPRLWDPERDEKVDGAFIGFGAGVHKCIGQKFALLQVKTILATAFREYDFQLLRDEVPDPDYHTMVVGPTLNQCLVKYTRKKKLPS

Compound | IC50 at 72 h [1] | IC50 (Trypanosoma cruzi [2]) | also measured
N#Cc1cc(N2CCCC2=O)ccc1Oc1ccccc1CO | > 50.1 µM | 2.51 µM | 
COCc1ccccc1Sc1ccc(N2CCCC2=O)cc1C#N | 31.6 µM | 6.31 µM | 
O=C1CCCN1c1ccc(S(=O)(=O)c2ccccc2CO)c(C(F)(F)F)c1 | > 50.1 µM | 0.251 µM | CLH [3]: 20 mL/min/g; half-life [4]: 4.39 min; CLH [5]: 12.5 mL/min/g; half-life [6]: 3.32 min; Cmax [7]: 175 ng/mL; Tmax [8]: 30 min; AUC(0-t) [9]: 208 ng·h/mL
Cc1cccc(CO)c1Sc1ccc(N2CCCC2=O)cc1C(F)(F)F | > 50.1 µM | 0.794 µM | 
N#Cc1cc(N2CCCC2=O)ccc1Sc1ccccc1C(=O)O | > 50.1 µM | 0.794 µM | 
O=C1CCCN1c1ccc(Sc2ccccc2O)c(C(F)(F)F)c1 | 15.8 µM | 2 µM | 
Cc1ccc(Sc2ccc(N3CCCC3=O)cc2C(F)(F)F)c(CO)c1 | > 50.1 µM | 6.31 µM | 
O=C1CCCN1c1ccc(Sc2c(Cl)cccc2CO)c(C(F)(F)F)c1 | > 50.1 µM | 1.26 µM | 
O=C1CCCN1c1ccc(Sc2ccccc2CO)cc1C(F)(F)F | > 50.1 µM | 7.94 µM | 
O=C1CCCN1c1ccc(Sc2ccccc2CO)nc1 | > 50.1 µM | 12.6 µM | 
N#Cc1cc(N2CCCC2=O)ccc1Sc1ccccc1CO | 0.447 µM |  | CLH [3]: 1.36 mL/min/g; IC50 (Trypanosoma cruzi [10]): 0.24 µM; IC50 (Trypanosoma cruzi [11]): 0.251 µM; IC50 [12]: 0.447 µM; Activity (Trypanosoma cruzi [2]): inactive; IC50 [13]: > 10 µM; Time (Trypanosoma cruzi [14]): >24 h; IC50 [15]: > 50.1 µM; IC50 (HepG2): > 100 µM; solubility thermodynamic [16]: 56 µg/mL (≈ 173 µM); half-life [4]: 54 min; CLH [5]: 4.62 mL/min/g; half-life [6]: 15 min; IC50 [17]: > 50.1 µM
O=C1CCCN1c1ccc(Sc2ccccc2CO)c(F)c1 | > 50.1 µM | 5.01 µM | 
COc1ccc(Sc2ccc(N3CCCC3=O)cc2C(F)(F)F)c(CO)c1 | > 50.1 µM | 1 µM | 
O=C1CCCN1c1ccc(Sc2ccccc2CO)c(Cl)c1 | > 50.1 µM | 0.2 µM | 
COc1ccc(CO)c(Sc2ccc(N3CCCC3=O)cc2C(F)(F)F)c1 | > 50.1 µM | 15.8 µM | 
O=C(Cn1ccnc1[N+](=O)[O-])NCc1ccccc1 [BENZNIDAZOLE] | 31.6 µM | 1.26 µM | 
O=C1CCCN1c1ccc(Sc2ncccc2CO)c(C(F)(F)F)c1 | > 50.1 µM | 20 µM | 
O=C1CCCN1c1ccc(Sc2ccccc2CO)cc1 | > 50.1 µM | > 50.1 µM | 

Compound | IC50 at 72 h [1] | IC50 (Trypanosoma cruzi [2]) | also measured
O=C(O)c1cc(N2CCCC2=O)ccc1Sc1ccccc1CO | > 50.1 µM | > 50.1 µM | 
O=C1CCCN1c1ccc(Sc2cccc(F)c2CO)c(C(F)(F)F)c1 | > 50.1 µM | 0.02 µM | 
O=C1CCCN1c1ccc(Sc2ccc(F)cc2CO)c(C(F)(F)F)c1 | > 50.1 µM |  | 
COC(=O)c1cc(N2CCCC2=O)ccc1Sc1ccccc1CO | > 50.1 µM | 31.6 µM | 
Cc1cccc(Sc2ccc(N3CCCC3=O)cc2C(F)(F)F)c1CO | > 50.1 µM | 0.316 µM | 
Cc1ccc(CO)c(Sc2ccc(N3CCCC3=O)cc2C(F)(F)F)c1 | > 50.1 µM | 15.8 µM | 
O=C1CCCN1c1ccc(Sc2ccccc2CO)c(C(F)(F)F)c1 | > 50.1 µM | 0.0316 µM | CLH [3]: 31.49 mL/min/g; half-life [4]: 4.78 min; CLH [5]: 11.51 mL/min/g; half-life [6]: 2.11 min; Cmax [7]: 301 ng/mL; Tmax [8]: 30 min; AUC(0-t) [9]: 485 ng·h/mL; AUC [18]: 530 ng·h/mL; Activity [19]: 16%; Activity (Trypanosoma cruzi [20]): 70%
COc1cccc(Sc2ccc(N3CCCC3=O)cc2C(F)(F)F)c1CO | > 50.1 µM | 25.1 µM | 
CCc1ccccc1Sc1ccc(N2CCCC2=O)cc1C(F)(F)F | 15.8 µM | 20 µM | 
O=C1CCCN1c1ccc(Sc2ccc(Cl)cc2CO)c(C(F)(F)F)c1 | 31.6 µM | 0.158 µM | 
O=C1CCCN1c1ccc(Sc2cccc(Cl)c2CO)c(C(F)(F)F)c1 | > 50.1 µM | 0.316 µM | 
COc1cccc(CO)c1Sc1ccc(N2CCCC2=O)cc1C(F)(F)F | > 50.1 µM | 20 µM | 
O=C1CCCN1c1ccc(Sc2ccccc2CO)c(OC(F)(F)F)c1 | > 50.1 µM | 2.51 µM | 
O=C1CCCN1c1ccc(Sc2cc(Cl)ccc2CO)c(C(F)(F)F)c1 | 39.8 µM | 6.31 µM | 
Cc1cc(N2CCCC2=O)ccc1Sc1ccccc1CO | > 50.1 µM | 6.31 µM | 
O=C1CCCN1c1ccc(Sc2cc(F)ccc2CO)c(C(F)(F)F)c1 | > 50.1 µM | 0.126 µM | 
N#Cc1cc(N2CCCC2=O)ccc1Sc1cccc(CO)c1 | > 50.1 µM | 31.6 µM | 
CN(C)C(=O)c1cc(N2CCCC2=O)ccc1Sc1ccccc1CO | > 50.1 µM | 50.1 µM | 

Source: ChEMBL document CHEMBL5316312, “Novel Diarylthioether Compounds as Agents for the Treatment of Chagas Disease” (J Med Chem, 2023)
